Experiments:
[1] = biological target: T1, alpha-L-iduronidase (Homo sapiens, UniProt P35475); experiment: inhibition of alpha-L-iduronidase (Example 3); type: biochemical
T1 sequence (P35475 28-653): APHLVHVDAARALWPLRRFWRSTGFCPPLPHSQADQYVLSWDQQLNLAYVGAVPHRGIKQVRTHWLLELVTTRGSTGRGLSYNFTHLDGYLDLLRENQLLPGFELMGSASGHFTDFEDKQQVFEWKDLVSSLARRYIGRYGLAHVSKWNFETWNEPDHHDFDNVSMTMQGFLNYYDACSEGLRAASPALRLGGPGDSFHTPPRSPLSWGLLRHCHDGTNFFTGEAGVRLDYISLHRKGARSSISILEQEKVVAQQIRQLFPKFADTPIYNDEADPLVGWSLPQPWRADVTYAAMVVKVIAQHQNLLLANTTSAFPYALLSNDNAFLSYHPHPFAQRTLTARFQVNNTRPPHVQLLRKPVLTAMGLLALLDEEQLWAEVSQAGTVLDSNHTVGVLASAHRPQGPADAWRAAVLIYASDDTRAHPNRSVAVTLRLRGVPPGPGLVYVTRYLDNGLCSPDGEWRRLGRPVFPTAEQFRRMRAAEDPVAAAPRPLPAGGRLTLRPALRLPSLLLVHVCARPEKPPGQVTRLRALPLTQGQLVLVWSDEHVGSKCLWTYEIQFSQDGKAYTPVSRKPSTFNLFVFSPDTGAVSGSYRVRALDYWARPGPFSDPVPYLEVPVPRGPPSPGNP
Excerpt: (§1) This compound, for example, might therefore show therapeutic activity for mucopolysaccharidosis type 1.

[2] = test system: the other 14 glycosidases described in Example 2; experiment: glycosidase panel of Example 2 (selectivity); type: biochemical
Procedure: The assays were conducted as described by Watson et al. 1997, Phytochemistry 46: 255-259 using p-nitrophenyl-substrates. Assays were carried out in microtitre plates. Enzymes were assayed in 0.1M citric acid/0.2M di-sodium hydrogen phosphate (Mcllvaine) buffers at the optimum pH for the enzyme. All assays were carried out at 20° C. All enzymes and substrates were purchased from Sigma Aldrich Chemicals Limited. The incubation mixture consisted of 10 μl of enzyme solution, 10 μl of the iminosugars solution (made up in deionised water at 5 mM) and 50 μl of the appropriate 5 mM p-nitrophenyl substrate made up in McIlvaine buffer at the optimum pH for the enzyme. The reactions were stopped with 0.4M glycine (pH 10.4) during the exponential phase of the reaction, which was determined at the beginning of the assay using blanks with water, which were incubated for a range of time periods to measure the reaction rate using 5 mM substrate solution. Absorbances were read at 405 nm. Water was substituted for the inhibitors in the blanks. […]

[3] = test system: N-acetyl-β-D-glucosaminidase (Bovine kidney); experiment: glycosidase assay with p-nitrophenyl substrates (Example 2); type: biochemical; settings: 10 μl of 5 mM iminosugar solution in 70 μl incubation mixture; 20° C.
Procedure: (§2) The assays were conducted as described by Watson et al. 1997, Phytochemistry 46: 255-259 using p-nitrophenyl-substrates. Assays were carried out in microtitre plates. Enzymes were assayed in 0.1M citric acid/0.2M di-sodium hydrogen phosphate (Mcllvaine) buffers at the optimum pH for the enzyme. All assays were carried out at 20° C. All enzymes and substrates were purchased from Sigma Aldrich Chemicals Limited. The incubation mixture consisted of 10 μl of enzyme solution, 10 μl of the iminosugars solution (made up in deionised water at 5 mM) and 50 μl of the appropriate 5 mM p-nitrophenyl substrate made up in McIlvaine buffer at the optimum pH for the enzyme. The reactions were stopped with 0.4M glycine (pH 10.4) during the exponential phase of the reaction, which was determined at the beginning of the assay using blanks with water, which were incubated for a range of time periods to measure the reaction rate using 5 mM substrate solution. Absorbances were read at 405 nm. Water was substituted for the inhibitors in the blanks.
(§3) The glycosidases used were α-D-glucosidase (yeast), α-D-glucosidase (Bacillus sterothermophilus), α-D-glucosidase (rice), amyloglucosidase (Aspergillus niger), β-D-glucosidase (almond), α-D-galactosidase (green coffee beans), β-D-galactosidase (bovine liver), α-L-fucosidase (bovine kidney), α-D-mannosidase (Jack bean), β-D-mannosidase (Cellullomonas fimi), Naringinase (Penicillium decumbens), N-acetyl-β-D-glucosaminidase (Bovine kidney), N-acetyl-β-D-glucosaminidase (Aspergillus oryzae) and N-acetyl-β-D-glucosaminidase (Jack bean)

[4] = test system: α-D-glucosidase (Bacillus sterothermophilus); experiment: as above; type: biochemical; settings: 10 μl of 5 mM iminosugar solution in 70 μl incubation mixture; 20° C.
Procedure: as §2, §3

[5] = biological target: T2, α-D-mannosidase (Jack bean) (Canavalia ensiformis, UniProt C0HJB3); experiment: as above; type: biochemical; settings: 10 μl of 5 mM iminosugar solution in 70 μl incubation mixture; 20° C.
T2 construct: purchased Sigma Aldrich Chemicals Limited
T2 sequence (C0HJB3 1-981): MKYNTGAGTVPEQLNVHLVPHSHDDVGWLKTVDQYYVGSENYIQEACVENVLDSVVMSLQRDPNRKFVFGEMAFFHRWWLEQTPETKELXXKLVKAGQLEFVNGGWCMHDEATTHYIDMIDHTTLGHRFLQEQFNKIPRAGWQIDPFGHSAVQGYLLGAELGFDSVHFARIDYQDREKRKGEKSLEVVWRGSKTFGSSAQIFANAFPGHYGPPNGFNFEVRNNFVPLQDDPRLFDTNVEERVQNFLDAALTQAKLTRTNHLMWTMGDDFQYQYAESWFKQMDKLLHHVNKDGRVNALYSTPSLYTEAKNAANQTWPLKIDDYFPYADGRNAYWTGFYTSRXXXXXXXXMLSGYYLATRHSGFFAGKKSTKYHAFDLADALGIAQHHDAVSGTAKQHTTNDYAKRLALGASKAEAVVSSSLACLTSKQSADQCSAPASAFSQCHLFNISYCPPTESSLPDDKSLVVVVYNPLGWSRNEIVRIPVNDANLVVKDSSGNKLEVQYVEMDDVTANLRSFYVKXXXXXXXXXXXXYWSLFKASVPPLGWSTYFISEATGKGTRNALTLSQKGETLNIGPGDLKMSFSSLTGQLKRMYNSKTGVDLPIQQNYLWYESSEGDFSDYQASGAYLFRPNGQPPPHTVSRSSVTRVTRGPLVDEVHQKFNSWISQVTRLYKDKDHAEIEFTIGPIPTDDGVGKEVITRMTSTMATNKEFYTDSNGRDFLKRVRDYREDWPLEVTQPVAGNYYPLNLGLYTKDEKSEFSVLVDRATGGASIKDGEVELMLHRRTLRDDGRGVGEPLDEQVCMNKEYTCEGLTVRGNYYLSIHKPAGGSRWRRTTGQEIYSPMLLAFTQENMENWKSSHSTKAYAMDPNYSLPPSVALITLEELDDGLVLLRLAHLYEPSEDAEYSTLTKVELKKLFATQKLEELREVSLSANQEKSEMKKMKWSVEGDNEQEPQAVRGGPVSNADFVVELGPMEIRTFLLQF
Procedure: as §2, §3

[6] = biological target: T3, α-D-galactosidase (green coffee beans) (Coffea arabica, UniProt Q42656); experiment: as above; type: biochemical; settings: 10 μl of 5 mM iminosugar solution in 70 μl incubation mixture; 20° C.; read-out: Promotion of glycosidase activity: α-D-galactosidase (Green coffee bean)
T3 construct: purchased Sigma Aldrich Chemicals Limited
Procedure: as §2, §3

[7] = test system: alpha-galactosidase; experiment: enzyme enhancement assay, cell based screening for chaperones (Fabry lymphoblasts GM04391); design: species or system human; settings: Fabry patient lymphoblasts (GM04391), dosed 0.3-100 μM, 72 hr; relative to vehicle
[8] = test system: beta-glucocerebrosidase (N370S GM01873, L444P GM08752); experiment: enzyme enhancement assay, cell based screening for chaperones (Gaucher lymphoblasts); design: species or system human; settings: Gaucher patient lymphoblasts, dosed 0.3-100 μM, 72 hr; relative to vehicle, normalised against total protein
[9] = biological target: T4, wild type (wt) beta-glucocerebrosidase (Homo sapiens, UniProt P04062); experiment: beta-glucocerebrosidase activity assay in HL60 lysate (4MU-β-D-glc); type: biochemical; settings: at a concentration of 100 μM, 0.5 mM 4MU-β-D-glc;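 note: fluorometric read-out of 4MU liberated from the substrate (ex 360 nm, em 450 nm) after 37 °C incubation, reaction stopped with sodium carbonate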
T4 construct: The lysates were used as a source for wild type (wt) beta-glucocerebrosidase; endogenous in cells; host or cells: HL60 (ECACC No. 98070106) lysate
T4 sequence (P04062 40-536): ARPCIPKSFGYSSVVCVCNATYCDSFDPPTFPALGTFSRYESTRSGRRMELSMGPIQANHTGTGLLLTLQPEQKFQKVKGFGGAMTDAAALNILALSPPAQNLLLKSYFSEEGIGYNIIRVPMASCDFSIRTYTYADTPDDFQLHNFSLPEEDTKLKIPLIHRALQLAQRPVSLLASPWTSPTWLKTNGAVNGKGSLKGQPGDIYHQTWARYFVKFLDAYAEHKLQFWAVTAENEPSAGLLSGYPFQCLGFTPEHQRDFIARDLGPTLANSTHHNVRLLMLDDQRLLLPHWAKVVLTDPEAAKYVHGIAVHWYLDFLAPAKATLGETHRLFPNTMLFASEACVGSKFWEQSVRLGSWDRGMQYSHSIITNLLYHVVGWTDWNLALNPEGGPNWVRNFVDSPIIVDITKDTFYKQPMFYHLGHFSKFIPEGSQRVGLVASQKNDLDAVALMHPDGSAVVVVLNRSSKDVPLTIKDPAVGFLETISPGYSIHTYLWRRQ

[10] = biological target: T5, Jack bean α-D-mannosidase (Canavalia ensiformis, UniProt C0HJB3); experiment: α-mannosidase activity assay with p-nitrophenyl-α-D-mannopyranoside (Example 1); type: biochemical; settings: Jack Bean α-mannosidase, p-nitrophenyl-α-D-mannopyranoside as the substrate
T5 construct: purchased Sigma M7257
T5 sequence (C0HJB3 1-981): T2 sequence (C0HJB3 1-981)
Procedure: Solutions of 0.2M Mcllvane buffer at pH 4.5 and 5 mM p-nitrophenyl-α-D-mannopyranoside (Sigma, N2127), dissolved in the buffer, were prepared. A solution of Jack bean α-D-mannosidase enzyme (Sigma, M7257, 22 Units/mg, 6.2 mg/ml.) was also prepared at 0.6 Units/ml in the buffer.
The incubation mixture consisted of 10 μl enzyme solution, 10 μl of 1 mg/ml aqueous iminosugar solution and 50 μl of 5 mM substrate made up in buffer at the optimum pH for the enzyme. The reactions were stopped by addition of 70 μl 0.4M glycine (pH 10.4) during the exponential phase of the reaction, which had been determined at the beginning using uninhibited assays in which water replaced inhibitor. Final absorbances were read at 405 nm using a Versamax microplate reader (Molecular Devices). Assays were carried out in triplicate, and the values given are means of the three replicates. Results were expressed as a percentage of uninhibited assays in which water replaced inhibitor.

[11] = biological target: T6, beta-glucuronidase (Homo sapiens, UniProt P08236); experiment: inhibition of beta-glucuronidase (Example 3); type: biochemical
T6 sequence (P08236 23-651): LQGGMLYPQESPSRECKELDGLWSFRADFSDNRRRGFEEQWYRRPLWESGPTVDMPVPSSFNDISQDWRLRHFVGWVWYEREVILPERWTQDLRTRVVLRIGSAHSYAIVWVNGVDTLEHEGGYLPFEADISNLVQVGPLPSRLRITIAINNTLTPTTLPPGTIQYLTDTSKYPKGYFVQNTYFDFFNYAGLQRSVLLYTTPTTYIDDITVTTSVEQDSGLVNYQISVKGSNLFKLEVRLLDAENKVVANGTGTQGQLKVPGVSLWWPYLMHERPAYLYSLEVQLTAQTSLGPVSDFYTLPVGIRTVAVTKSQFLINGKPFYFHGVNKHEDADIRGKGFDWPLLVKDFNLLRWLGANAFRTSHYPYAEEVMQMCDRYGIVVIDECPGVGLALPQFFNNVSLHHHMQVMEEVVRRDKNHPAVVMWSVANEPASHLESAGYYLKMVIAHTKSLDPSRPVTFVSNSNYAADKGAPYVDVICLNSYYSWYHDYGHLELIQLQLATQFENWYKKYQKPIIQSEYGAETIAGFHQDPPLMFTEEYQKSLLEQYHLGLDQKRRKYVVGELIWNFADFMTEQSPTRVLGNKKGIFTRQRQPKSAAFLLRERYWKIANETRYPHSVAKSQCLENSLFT
Excerpt: as §1

T3 sequence (Q42656 16-378): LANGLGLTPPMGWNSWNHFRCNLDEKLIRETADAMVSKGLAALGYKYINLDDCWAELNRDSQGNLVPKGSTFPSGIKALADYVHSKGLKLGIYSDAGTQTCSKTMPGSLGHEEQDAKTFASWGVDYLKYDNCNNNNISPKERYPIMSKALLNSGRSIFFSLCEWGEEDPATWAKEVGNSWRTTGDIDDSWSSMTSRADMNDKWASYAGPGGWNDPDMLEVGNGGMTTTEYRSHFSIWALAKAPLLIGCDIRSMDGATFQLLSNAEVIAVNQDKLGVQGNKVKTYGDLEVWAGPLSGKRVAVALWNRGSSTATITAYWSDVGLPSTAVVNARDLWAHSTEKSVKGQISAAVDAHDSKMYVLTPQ

Compound | Promotion of glycosidase activity: N-acetyl-β-D-gluc (Bovine kidney) [3] | Promotion of glycosidase activity: α-D-glucosidase (Bacillus sterothermophilus) [4] | Promotion of glycosidase activity: α-D-mannosidase (Jack bean) [5] | increased enzyme activity (alpha-galactosidase) [7] | increased enzyme activity (beta-glucocerebrosidase) [8] | further results
O=C(O)[C@@H]1[C@@H](O)[C@H](O)[C@H]2[C@@H](O)CCN21 [Compound 56, (1R,2R,3S,7S,7aR)-1,2,7-trihydroxyhexahydro-1H-pyrrolizine-3-carboxylic acid] |  |  |  |  |  | inhibition of alpha-L-iduronidase (in words) [1]: potently inhibited; inhibition of the other 14 glycosidases described in Example 2 (in words) [2]: none
CCCC[N+]1([O-])C[C@@H](O)[C@H](O)[C@H]1CO (stereo partly drawn) [Compound 95, (2R,3R,4R)-1-butyl-3,4-dihydroxy-2-(hydroxymethyl)pyrrolidine 1-oxide] | 46 % increase in absorbance compared to the water controls | 53 % increase in absorbance compared to the water controls | 86 % increase in absorbance compared to the water controls |  |  | activation at 714 µM [6]: 35%
O[C@@H]1C[C@H]2CC[C@](O)(N2)[C@H]1O [Compound 20, (1R,2S,3R,5R)-8-azabicyclo[3.2.1]octane-1,2,3-triol] |  |  |  | > 20% | > 20% | inhibition at 100 µM [9]: > 50%
CCCC[N@+]1([O-])C[C@H](O)[C@@H](O)[C@H]1CO [Compound 165, (1S,2R,3S,4S)-1-butyl-3,4-dihydroxy-2-(hydroxymethyl)pyrrolidine 1-oxide] | 76 % increase in absorbance compared to the water controls | 72 % increase in absorbance compared to the water controls | 43 % increase in absorbance compared to the water controls |  |  | 
C[C@@]1(O)CN[C@H](CO)[C@@H](O)[C@@H]1O [Compound 201, (2R,3R,4S,5R)-2-(hydroxymethyl)-5-methylpiperidine-3,4,5-triol] |  |  |  | > 201% | > 201% | promotion of the mannosidase activity (in words) [10]: promotion of the mannosidase activity
O=C(O)[C@H]1NC[C@H](O)[C@@H](O)[C@@H]1O [Compound 7, (2S,3R,4R,5S)-3,4,5-trihydroxypiperidine-2-carboxylic acid] |  |  |  |  |  | inhibition of beta-glucuronidase (in words) [11]: specific inhibitor

Reference: US20110237538A1, “TREATMENT OF LYSOSOMAL STORAGE DISORDERS AND OTHER PROTEOSTATIC DISEASES” (SUMMIT CORPORATION PLC, priority 2008, published 2011)
